Source: ChEMBL document CHEMBL1955734, “JFCR39, a panel of 39 human cancer cell lines, and its application in the discovery and development of anticancer drugs” (Bioorg Med Chem, 2012)

Legend:
[1] = target: Telomerase reverse transcriptase (Homo sapiens, UniProt O14746); assay: Inhibition of telomerase
MKN-7 = assay: Growth inhibition of human MKN7 cells; assay type: functional, cell-based
DMS-114 = assay: Growth inhibition of human DMS114 cells; assay type: functional, cell-based
St-4 = assay: Growth inhibition of human St-4 cells; assay type: functional, cell-based
SF-539 = assay: Growth inhibition of human SF539 cells; assay type: functional, cell-based
[2] = Growth inhibition of human HBC5 cells; assay type: functional, cell-based
[3] = Growth inhibition of human HBC4 cells; assay type: functional, cell-based
ACHN = assay: Growth inhibition of human ACHN cells; assay type: functional, cell-based
[4] = Growth inhibition of human MKN1 cells; assay type: functional, cell-based; details: MKN-1
NCI-H522 = assay: Growth inhibition of human NCI-H522 cells; assay type: functional, cell-based
OVCAR-5 = assay: Growth inhibition of human OVCAR5 cells; assay type: functional, cell-based
DU-145 = assay: Growth inhibition of human DU145 cells; assay type: functional, cell-based
[5] = Growth inhibition of human RXF631L cells; assay type: functional; details: RXF 631
SNB-75 = assay: Growth inhibition of human SNB75 cells; assay type: functional, cell-based
OVCAR-3 = assay: Growth inhibition of human OVCAR3 cells; assay type: functional, cell-based
HT-29 = assay: Growth inhibition of human HT-29 cells; assay type: functional, cell-based
A549 = assay: Growth inhibition of human A549 cells; assay type: functional, cell-based
MKN-28 = assay: Growth inhibition of human MKN28 cells; assay type: functional, cell-based
MCF7 = assay: Growth inhibition of human MCF7 cells; assay type: functional, cell-based
HCT-116 = assay: Growth inhibition of human HCT116 cells; assay type: functional, cell-based
LOX IMVI = assay: Growth inhibition of human LOXIMVI cells; assay type: functional, cell-based
NCI-H23 = assay: Growth inhibition of human NCI-H23 cells; assay type: functional, cell-based
[6] = Growth inhibition of human NCI-H483 cells; assay type: functional, cell-based
SK-OV-3 = assay: Growth inhibition of human SKOV3 cells; assay type: functional, cell-based
HCC 2998 = assay: Growth inhibition of human HCC2998 cells; assay type: functional, cell-based
MDA-MB-231 = assay: Growth inhibition of human MDA-MB-231 cells; assay type: functional, cell-based
HCT-15 = assay: Growth inhibition of human HCT15 cells; assay type: functional, cell-based
KM12 = assay: Growth inhibition of human KM12 cells; assay type: functional, cell-based
MKN-74 = assay: Growth inhibition of human MKN74 cells; assay type: functional, cell-based
PC-3 = assay: Growth inhibition of human PC3 cells; assay type: functional, cell-based
SF-268 = assay: Growth inhibition of human SF268 cells; assay type: functional, cell-based
NCI-H226 = assay: Growth inhibition of human NCI-H226 cells; assay type: functional, cell-based
SNB-78 = assay: Growth inhibition of human SNB78 cells; assay type: functional, cell-based
OVCAR-8 = assay: Growth inhibition of human OVCAR8 cells; assay type: functional, cell-based
U-251 = assay: Growth inhibition of human U251 cells; assay type: functional, cell-based
MKN-45 = assay: Growth inhibition of human MKN45 cells; assay type: functional, cell-based
[7] = Growth inhibition of human BSY1 cells; assay type: functional, cell-based; details: BSY-1
SF-295 = assay: Growth inhibition of human SF295 cells; assay type: functional, cell-based
DMS-273 = assay: Growth inhibition of human DMS273 cells; assay type: functional, cell-based
OVCAR-4 = assay: Growth inhibition of human OVCAR4 cells; assay type: functional, cell-based

Sequence of Telomerase reverse transcriptase (O14746 whole entry): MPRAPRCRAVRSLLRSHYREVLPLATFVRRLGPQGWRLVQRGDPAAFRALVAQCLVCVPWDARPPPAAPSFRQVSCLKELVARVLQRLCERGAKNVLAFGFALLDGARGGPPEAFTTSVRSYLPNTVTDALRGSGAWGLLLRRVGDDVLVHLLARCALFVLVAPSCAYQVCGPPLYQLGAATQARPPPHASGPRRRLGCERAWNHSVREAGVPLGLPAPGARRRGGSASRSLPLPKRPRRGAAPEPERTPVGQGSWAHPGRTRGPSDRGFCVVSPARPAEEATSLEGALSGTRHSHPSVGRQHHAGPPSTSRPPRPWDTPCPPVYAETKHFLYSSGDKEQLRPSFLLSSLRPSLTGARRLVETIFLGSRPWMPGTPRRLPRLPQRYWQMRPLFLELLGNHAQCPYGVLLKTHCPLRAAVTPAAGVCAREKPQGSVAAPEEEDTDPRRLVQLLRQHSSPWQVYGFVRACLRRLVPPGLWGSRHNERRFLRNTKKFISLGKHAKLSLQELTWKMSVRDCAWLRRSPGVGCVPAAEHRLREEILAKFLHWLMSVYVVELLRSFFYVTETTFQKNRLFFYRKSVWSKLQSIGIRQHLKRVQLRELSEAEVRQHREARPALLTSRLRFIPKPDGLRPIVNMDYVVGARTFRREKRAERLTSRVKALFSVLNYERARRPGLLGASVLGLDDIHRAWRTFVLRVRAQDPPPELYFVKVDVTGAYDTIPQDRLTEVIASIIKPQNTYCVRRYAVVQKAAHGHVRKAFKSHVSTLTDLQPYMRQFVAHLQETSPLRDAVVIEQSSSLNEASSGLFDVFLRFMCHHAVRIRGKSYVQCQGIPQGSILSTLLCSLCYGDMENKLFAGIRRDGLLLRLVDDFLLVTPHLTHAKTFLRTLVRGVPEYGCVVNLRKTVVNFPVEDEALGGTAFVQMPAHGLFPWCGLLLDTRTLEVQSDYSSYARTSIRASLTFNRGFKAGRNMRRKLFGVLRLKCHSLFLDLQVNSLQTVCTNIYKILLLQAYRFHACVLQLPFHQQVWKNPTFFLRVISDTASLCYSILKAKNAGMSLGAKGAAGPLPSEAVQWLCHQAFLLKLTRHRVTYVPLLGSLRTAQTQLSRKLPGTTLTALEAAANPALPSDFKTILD

CCn1c(=O)/c(=C2\Sc3ccccc3N2C)s/c1=C\c1scc(C)[n+]1CC
IC50 [1]: 2000 nM

Cn1cc(NC(=O)CC[S+](C)C)cc1-c1nc2cc(C(=O)Nc3ccc(N(CCCl)CCCl)cc3)ccc2[nH]1
IC50 (MKN-7): 710 nM
IC50 (DMS-114): 710 nM
IC50 (St-4): 710 nM
IC50 (SF-539): 710 nM
IC50 [2]: 710 nM
IC50 [3]: 710 nM
IC50 (ACHN): 710 nM
IC50 [4]: 710 nM
IC50 (NCI-H522): 710 nM
IC50 (OVCAR-5): 710 nM
IC50 (DU-145): 710 nM
IC50 [5]: 710 nM
IC50 (SNB-75): 710 nM
IC50 (OVCAR-3): 710 nM
IC50 (HT-29): 710 nM
IC50 (A549): 710 nM
IC50 (MKN-28): 710 nM
IC50 (MCF7): 710 nM
IC50 (HCT-116): 710 nM
IC50 (LOX IMVI): 710 nM
IC50 (NCI-H23): 710 nM
IC50 [6]: 710 nM
IC50 (SK-OV-3): 710 nM
IC50 (HCC 2998): 710 nM
IC50 (MDA-MB-231): 710 nM
IC50 (HCT-15): 710 nM
IC50 (KM12): 710 nM
IC50 (MKN-74): 710 nM
IC50 (PC-3): 710 nM
IC50 (SF-268): 710 nM
IC50 (NCI-H226): 710 nM
IC50 (SNB-78): 710 nM
IC50 (OVCAR-8): 710 nM
IC50 (U-251): 710 nM
IC50 (MKN-45): 710 nM
IC50 [7]: 710 nM
IC50 (SF-295): 710 nM
IC50 (DMS-273): 710 nM
IC50 (OVCAR-4): 710 nM

CCn1c(=O)/c(=C2\Sc3ccccc3N2C)s/c1=C\c1cccc[n+]1CC
IC50 [1]: 5000 nM

COc1ccc2cc3[n+](cc2c1OC)CCc1cc2c(cc1-3)OCO2 [BERBERINE]
IC50 [1]: 37000 nM

Cn1c(=O)n(-c2ccc(C(C)(C)C#N)cc2)c2c3cc(-c4cnc5ccccc5c4)ccc3ncc21 [DACTOLISIB]
GI50 (MKN-7): 20.9 nM
GI50 (DMS-114): 4.07 nM
GI50 (St-4): 33.9 nM
GI50 (SF-539): 2.57 nM
GI50 [2]: 13.5 nM
GI50 [3]: 2.46 nM
GI50 (ACHN): 11.2 nM
GI50 [4]: 3.89 nM
GI50 (NCI-H522): 3.55 nM
GI50 (OVCAR-5): 26.9 nM
GI50 (DU-145): 6.92 nM
GI50 [5]: 6.17 nM
GI50 (SNB-75): 2.63 nM
GI50 (OVCAR-3): 6.76 nM
GI50 (HT-29): 17.8 nM
GI50 (A549): 8.51 nM
GI50 (MKN-28): 85.1 nM
GI50 (MCF7): 6.92 nM
GI50 (HCT-116): 24.6 nM
GI50 (LOX IMVI): 2.19 nM
GI50 (NCI-H23): 22.9 nM
GI50 [6]: 7.76 nM
GI50 (SK-OV-3): 3.89 nM
GI50 (HCC 2998): 8.91 nM
GI50 (MDA-MB-231): 8.13 nM
GI50 (HCT-15): 9.33 nM
GI50 (KM12): 28.8 nM
GI50 (MKN-74): 38 nM
GI50 (PC-3): 2.19 nM
GI50 (SF-268): 12 nM
GI50 (NCI-H226): 3.63 nM
GI50 (SNB-78): 2.24 nM
GI50 (OVCAR-8): 14.4 nM
GI50 (U-251): 21.9 nM
GI50 (MKN-45): 4.57 nM
GI50 [7]: 3.31 nM
GI50 (SF-295): 4.9 nM
GI50 (DMS-273): 15.8 nM
GI50 (OVCAR-4): 2.63 nM

CS(=O)(=O)N1CCN(Cc2cc3nc(-c4cccc5[nH]ncc45)nc(N4CCOCC4)c3s2)CC1 [PICTILISIB]
GI50 (MKN-7): 316 nM
GI50 (DMS-114): 1200 nM
GI50 (St-4): 2750 nM
GI50 (SF-539): 316 nM
GI50 [2]: 251 nM
GI50 [3]: 933 nM
GI50 (ACHN): 851 nM
GI50 [4]: 83.2 nM
GI50 (NCI-H522): 263 nM
GI50 (OVCAR-5): 550 nM
GI50 (DU-145): 1410 nM
GI50 [5]: 132 nM
GI50 (SNB-75): 79.4 nM
GI50 (OVCAR-3): 195 nM
GI50 (HT-29): 501 nM
GI50 (A549): 708 nM
GI50 (MKN-28): 3020 nM
GI50 (MCF7): 46.8 nM
GI50 (HCT-116): 1350 nM
GI50 (LOX IMVI): 513 nM
GI50 (NCI-H23): 1860 nM
GI50 [6]: 275 nM
GI50 (SK-OV-3): 302 nM
GI50 (HCC 2998): 513 nM
GI50 (MDA-MB-231): 3470 nM
GI50 (HCT-15): 759 nM
GI50 (KM12): 1740 nM
GI50 (MKN-74): 955 nM
GI50 (PC-3): 219 nM
GI50 (SF-268): 4070 nM
GI50 (NCI-H226): 617 nM
GI50 (SNB-78): 302 nM
GI50 (OVCAR-8): 1860 nM
GI50 (U-251): 3160 nM
GI50 (MKN-45): 282 nM
GI50 [7]: 126 nM
GI50 (SF-295): 427 nM
GI50 (DMS-273): 372 nM
GI50 (OVCAR-4): 1740 nM

FC(F)c1nc2ccccc2n1-c1nc(N2CCOCC2)nc(N2CCOCC2)n1 [ZSTK-474]
GI50 (MKN-7): 575 nM
GI50 (DMS-114): 479 nM
GI50 (St-4): 1910 nM
GI50 (SF-539): 479 nM
GI50 [2]: 170 nM
GI50 [3]: 912 nM
GI50 (ACHN): 603 nM
GI50 [4]: 245 nM
GI50 (NCI-H522): 263 nM
GI50 (OVCAR-5): 1200 nM
GI50 (DU-145): 724 nM
GI50 [5]: 316 nM
GI50 (SNB-75): 155 nM
GI50 (OVCAR-3): 389 nM
GI50 (HT-29): 646 nM
GI50 (A549): 676 nM
GI50 (MKN-28): 1950 nM
GI50 (MCF7): 182 nM
GI50 (HCT-116): 1380 nM
GI50 (LOX IMVI): 288 nM
GI50 (NCI-H23): 1050 nM
GI50 [6]: 372 nM
GI50 (SK-OV-3): 398 nM
GI50 (HCC 2998): 851 nM
GI50 (MDA-MB-231): 813 nM
GI50 (HCT-15): 525 nM
GI50 (KM12): 2240 nM
GI50 (MKN-74): 1020 nM
GI50 (PC-3): 145 nM
GI50 (SF-268): 1480 nM
GI50 (NCI-H226): 407 nM
GI50 (SNB-78): 355 nM
GI50 (OVCAR-8): 1260 nM
GI50 (U-251): 1820 nM
GI50 (MKN-45): 245 nM
GI50 [7]: 275 nM
GI50 (SF-295): 347 nM
GI50 (DMS-273): 339 nM
GI50 (OVCAR-4): 1620 nM
